Values of other authors, collected in patent US20210316006A1, “PYRROLOBENZODIAZEPINE CONJUGATES” (priority 2018, published 2021).

Assays:
[1] = quoted from Mantaj et al. 2016
[2] = in vitro; quoted from Gregson et al. 1999

| SMILES | activity in vivo [1] | cytotoxic potency relative to DSB-120 [2] [fold] |
| --- | --- | --- |
| COc1cc2c(cc1OCCCOc1cc3c(cc1OC)C(=O)N1CCC[C@H]1C=N3)N=C[C@@H]1CCCN1C2=O [DSB-120] | poor activity in vivo | – |
| C=C1C[C@H]2C=Nc3cc(OCCCOc4cc5c(cc4OC)C(=O)N4CC(=C)C[C@H]4C=N5)c(OC)cc3C(=O)N2C1 [SG2000] | – | ~9000 |
